How the values were obtained:
muHCN2 [1] = biological target: T1, muHCN2 (Mus musculus, UniProt O88703); assay: Patch-clamp (electrophysiological) examination in the same cells; format: cell-based, murine; settings: determined electrophysiologically in the same cells
T1 construct: expressed in transfected cells
T1 sequence (O88703 1-863): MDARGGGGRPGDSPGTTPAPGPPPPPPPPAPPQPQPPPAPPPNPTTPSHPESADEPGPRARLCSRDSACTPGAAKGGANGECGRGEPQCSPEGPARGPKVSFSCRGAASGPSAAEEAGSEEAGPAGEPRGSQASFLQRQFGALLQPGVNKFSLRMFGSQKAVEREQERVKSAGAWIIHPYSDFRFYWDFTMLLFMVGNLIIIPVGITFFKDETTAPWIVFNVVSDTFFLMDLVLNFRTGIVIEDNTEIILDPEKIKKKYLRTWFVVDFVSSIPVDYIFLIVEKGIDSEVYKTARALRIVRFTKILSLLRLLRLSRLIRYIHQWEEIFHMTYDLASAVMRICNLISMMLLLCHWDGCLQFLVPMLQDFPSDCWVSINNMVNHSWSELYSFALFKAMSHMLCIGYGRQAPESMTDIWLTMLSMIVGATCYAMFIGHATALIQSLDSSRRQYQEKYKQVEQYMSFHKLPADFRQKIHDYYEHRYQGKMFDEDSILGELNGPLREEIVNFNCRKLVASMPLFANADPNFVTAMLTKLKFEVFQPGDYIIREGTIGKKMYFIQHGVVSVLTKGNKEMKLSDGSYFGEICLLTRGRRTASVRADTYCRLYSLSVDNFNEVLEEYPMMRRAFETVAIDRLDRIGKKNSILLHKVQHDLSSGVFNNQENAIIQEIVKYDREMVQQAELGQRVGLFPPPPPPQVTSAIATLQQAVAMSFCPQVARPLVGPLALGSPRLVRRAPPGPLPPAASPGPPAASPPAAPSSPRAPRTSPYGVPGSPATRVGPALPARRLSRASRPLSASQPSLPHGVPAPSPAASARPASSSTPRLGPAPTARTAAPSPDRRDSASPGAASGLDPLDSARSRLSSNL
Text: Using the patch-clamp method, the cells with detectable mRNA expression were examined electrophysiologically, in the whole-cell configuration, for functional expression of muHCN2. This method is described in detail in Hamill et al (1981), which is incorporated herein by reference. The cells were clamped to a holding potential of −40 mV. Starting with this holding potential, the ion channels were activated by a voltage change to […] for a period of one second. The current amplitude was determined the end of this pulse. Among the transfected HEK cells, some were found having currents of about 1 nA; however, owing to interfering endogenous currents, it was not possible to construct an assay for these cells in the FLIPR.
Electrophysiologically, currents of up to 11 nA were measured. These cells were used for constructing an FLIPR assay for HCN2.
Using the transfected HCN cells, the effect of various concentrations of the substance zatebradine, which is known as an If blocker, were examined. The inhibition by zatebradine was calculated from the relative change in fluorescence from the time 60 seconds. For each concentration of the inhibitor, the mean of in each case 6 wells of the microtiter plate was determined.

muHCN2 [2] = biological target: T1, muHCN2; assay: FLIPR membrane potential assay (DiBac4(3)) with transfected HCN cells; format: cell-based, murine; settings: muHCN2-transfected CHO cells, relative change in fluorescence from the time 60 seconds, mean of 6 wells per concentration, read-out: IC50 of zatebradine (inhibition calculated from relative change in fluorescence)
Description: The cells seeded on the microtiter plates are washed in an isoosmolar buffer in which NaCl has been replaced by choline chloride. However, this wash buffer also contains 5 mM KCl, since extracellular K^+ is important for HCN activation (Biel et al. 1999). This wash buffer, which serves to effect hyperpolarization of the HCN cells, also contains 5 μM DiBac4(3) for measuring changes in the membrane potential in the FLIPR. By removing the extracellular Na^+, the cells are hyperpolarized, i.e. the HCN is activated. However, the HCN is not capable of causing depolarization of the cells, since the required concentration gradient of the ions Na^+ or K^+ transported by HCN is missing. […] This is reflected in the fact that the initial fluorescence measured for HCN cells in the FLIPR at 10 μM forskolin is lower than that without forskolin, whereas there is no difference in nontransfected cells.
Since DiBac4(3) fluorescence may be sensitive to temperature variations, the measurement is, after an incubation at 37° C. for 30 minutes, carried out as quickly as possible—cooling of the dye solution may affect the measured results. […]
In the FLIPR, Na^+ is added to the cells so that the activated HCN (after a few seconds, in which there are mixing effects) causes, from about 15 seconds after the addition of Na^+, depolarization of the cells, which becomes visible by an increase in fluorescence. […]

IC50 (muHCN2 [1]): 31 µM
IC50 (muHCN2 [2]): 26 µM
Structure (SMILES): COc1ccc(CCN(C)CCCN2CCc3cc(OC)c(OC)cc3CC2=O)cc1OC [zatebradine, 3-[3-[[2-(3,4-dimethoxyphenyl)ethyl]methylamino]propyl]-1,3,4,5-tetrahydro-7,8-dimethoxy-2H-3-benzazepin-2-one]

— patent publication US7550257B2, “Process for identifying substances which modulate the activity of hyperpolarization-activated cation channels” (Sanofi-Aventis Deutschland GmbH, priority 2000, dated 2009)
